Ends that are not written are not given here.
How the values were obtained:
4T1 cells = test: Label-free proteomics analysis; format: cell-based, murine; details: Fig. 4f proteomics heatmap value
Protocol: For proteomics analysis, 4T1 cells (5 × 10^5 cells) were seeded in 12-well plates (NEST Biotechnology). […] Cell samples were submitted for label-free proteomics analysis (Shanghai Omics-space Biotech Co., Ltd., Shanghai, China). The analysis included protein extraction, protein digestion, LC − MS/MS detection (Thermo Scientific Orbitrap-Fusion Lumos), protein quantitation and identification (MaxQuant 1.5.5.1), and bioinformatics analysis.

[1] = system: orthotopic 4T1 breast tumors; test: Hydroxyproline assay in tumor tissues; format: in vivo, female BALB/c mice; parameters: unit not given here
Protocol: (§1) 4T1 cells (1 × 10^6 cells) were injected into the third mammary fat pad of female BALB/c mice (6–8-week). […] On day 28, blood samples, lungs and tumors were harvested.
To assess fibrosis in tumor tissues, Masson staining, Sirius staining, immunofluorescent staining of α-SMA and fibronectin, and a quantitative hydroxyproline assay were employed. For immunofluorescent staining of α-SMA and fibronectin, tumor slices were stained with anti-alpha smooth muscle actin recombinant rabbit monoclonal antibody (1:500 dilution) and anti-fibronectin mouse monoclonal antibody (1:500 dilution) at 4 °C overnight, followed by staining with goat anti-mouse IgG H&L Alexa Fluor® 488 (1:1000 dilution) and goat anti-rabbit IgG H&L Alexa Fluor® 647 (1:1000 dilution).

[2] = system: HIF-1α in orthotopic 4T1 tumors; test: Intratumoral HIF-1α expression by flow cytometry; format: in vivo, female BALB/c mice
Protocol: as §1
For evaluating the hypoxic conditions in tumor tissues, immunofluorescent staining and flow cytometry analysis of HIF-1α were conducted. For immunofluorescent staining of HIF-1α, tumor slices were sequentially stained with anti-HIF-1 alpha recombinant rabbit monoclonal antibody (1:500 dilution) and goat anti-rabbit IgG H&L Alexa Fluor® 647 (1:1000 dilution). For flow cytometry analysis of HIF-1α, single-cell suspensions of tumor tissues were sequentially stained with anti-HIF1 alpha rabbit polyclonal antibody (1:500 dilution) and goat anti-rabbit IgG H&L Alexa Fluor® 647 (1:1000 dilution) before analysis.

[3] = system: orthotopic 4T1 breast tumors; test: EMT markers E-cadherin and vimentin in primary tumors (flow cytometry); format: in vivo, female BALB/c mice
Protocol: as §1
To investigate the epithelial-mesenchymal transition process in tumor tissues, immunofluorescent staining of E-cadherin, vimentin, MMP-9, and TGF-β, along with flow cytometry analysis of E-cadherin and vimentin, were applied. For immunofluorescent staining of E-cadherin and vimentin, tumor slices were stained with CoraLite® Plus 647 anti-mouse CD324 (E-cadherin, 1:300 dilution) and anti-vimentin mouse monoclonal antibody (1:500 dilution) at 4 °C overnight, followed by staining with goat anti-mouse IgG H&L Alexa Fluor® 488 (1:1000 dilution). For flow cytometry analysis of E-cadherin and vimentin, single-cell suspensions of tumor tissues were stained with CoraLite® Plus 647 anti-mouse CD324 (E-cadherin, 1:300 dilution) or sequentially stained with anti-vimentin recombinant rabbit monoclonal antibody and goat anti-rabbit IgG H&L Alexa Fluor® 647 (1:1000 dilution), respectively. For immunofluorescent staining of MMP-9 and TGF-β, tumor slices were separately stained with MMP9 Rabbit pAb (1:500 dilution) or anti-TGF beta 1 recombinant rabbit monoclonal antibody (1:500 dilution), followed by staining with goat anti-rabbit IgG H&L Alexa Fluor® 647 (1:1000 dilution), respectively.

[4] = system: pulmonary CD11b+Gr1+ BMDCs; test: Pulmonary BMDCs (CD11b+Gr1+) by flow cytometry; format: in vivo, female BALB/c mice
Protocol: as §1
(§2) To explore the “seed-soil” crosstalk, the serum, intra-tumoral, and pulmonary concentration of LOX was determined using enzyme-linked immunosorbent assay kits (CSB-EL013041MO, CUSABIO, https://www.cusabio.com/) according to the manufacturer’s instructions. The serum, intra-tumoral, and pulmonary concentration of TGF-β was determined using mouse TGF-β ELISA Kit (Cat No.: HB1328-Mu). The formation of PMN was investigated through lung slices subjected to immunofluorescent staining of LOX, E-cadherin, and S100A8. For immunofluorescent staining of E-cadherin, Lung slices were stained with CoraLite® Plus 647 anti-mouse CD324 (E-cadherin, 1:300 dilution). For immunofluorescent staining of LOX and S100A8, Lung slices were separately stained with anti-LOX recombinant rabbit monoclonal antibody (1:500 dilution) or S100-A8 / MRP8 rabbit pAb (1:500 dilution), followed by staining with goat anti-rabbit IgG H&L Alexa Fluor® 647 (1:1000 dilution), respectively. Single-cell suspensions of lungs were analyzed using flow cytometry to assess BMDC (CD11b^+Gr1^+) with PE anti-mouse/human CD11b antibody (1:300 dilution) and FITC anti-mouse Ly-6G/Ly-6C (Gr-1) antibody (1:300 dilution). Chemokine concentrations in lungs were determined using a mouse CXCL12 ELISA kit.

LOX = test: Immunofluorescence of LOX in lung tissues; format: in vivo, female BALB/c mice
Protocol: as §2

[5] = i.v. days 7, 14, 21 (5 mg/kg BS equivalence; P-CM2 24 h later), analysis day 28, mouse 1 of 5

Substance	PKA C-alpha (4T1 cells; replicate 1)	VDAC3 (4T1 cells; replicate 1)	PKA C-alpha (4T1 cells; replicate 2)	VDAC3 (4T1 cells; replicate 2)	PKA C-alpha (4T1 cells; replicate 3)	VDAC3 (4T1 cells; replicate 3)	hydroxyproline in tumor tissues (Fig. 6b) [1, 5]	hydroxyproline in tumor tissues (Fig. 6b) ([1]; same, mouse 2 of 5)	hydroxyproline in tumor tissues (Fig. 6b) ([1]; same, mouse 3 of 5)	hydroxyproline in tumor tissues (Fig. 6b) ([1]; same, mouse 4 of 5)	hydroxyproline in tumor tissues (Fig. 6b) ([1]; same, mouse 5 of 5)	intratumoral HIF-1α expression, flow cytometry (Fig. 6c) [2, 5]	intratumoral HIF-1α expression, flow cytometry (Fig. 6c) ([2]; same, mouse 2 of 5)	intratumoral HIF-1α expression, flow cytometry (Fig. 6c) ([2]; same, mouse 3 of 5)	intratumoral HIF-1α expression, flow cytometry (Fig. 6c) ([2]; same, mouse 4 of 5)	intratumoral HIF-1α expression, flow cytometry (Fig. 6c) ([2]; same, mouse 5 of 5)	Relative fluorescence intensity of E-cadherin ([3]; replicate 1)	Relative fluorescence intensity of vimentin ([3]; replicate 1)	Relative fluorescence intensity of E-cadherin ([3]; replicate 2)	Relative fluorescence intensity of vimentin ([3]; replicate 2)	further results
LGASWHRPDKCCLGYQKRPLPA [Free BS]	-0.6179	0.5272	0.3837	-0.8599	-0.4642	0.1524	0.5754	0.4638	0.4618	0.441	0.4238	1107.6	915.453	924.512	898.316	847.852	125.013	279.76	109.513	205.554	Relative fluorescence intensity of E-cadherin ([3]; replicate 3): 122.233; Relative fluorescence intensity of vimentin ([3]; replicate 3): 194.538; Relative fluorescence intensity of E-cadherin ([3]; replicate 4): 126.237; Relative fluorescence intensity of vimentin ([3]; replicate 4): 224.095; Relative fluorescence intensity of E-cadherin ([3]; replicate 5): 145.15; Relative fluorescence intensity of vimentin ([3]; replicate 5): 192.228; Pulmonary CD11b+Gr1+ BMDCs (%) [4, 5]: 31.8%; Pulmonary CD11b+Gr1+ BMDCs (%) ([4]; same, mouse 2 of 5): 39.87%; Pulmonary CD11b+Gr1+ BMDCs (%) ([4]; same, mouse 3 of 5): 35.6%; Pulmonary CD11b+Gr1+ BMDCs (%) ([4]; same, mouse 4 of 5): 41%; Pulmonary CD11b+Gr1+ BMDCs (%) ([4]; same, mouse 5 of 5): 39.4%; Mean fluorescence intensity of LOX in lung tissues (LOX; replicate 1): 145.665; Mean fluorescence intensity of LOX in lung tissues (LOX; replicate 2): 136.817; Mean fluorescence intensity of LOX in lung tissues (LOX; replicate 3): 150.369; Mean fluorescence intensity of LOX in lung tissues (LOX; replicate 4): 132.821; Mean fluorescence intensity of LOX in lung tissues (LOX; replicate 5): 140.21
P-BS: HPMA copolymer-BS conjugate, ~6 BS grafts per polymer (LGASWHRPDKCCLGYQKRPLPA; not fully specified (residues 11, 12); also: about 6 peptides grafted on HPMA copolymer via cysteine-maleimide thioether links)	-1.375	-0.0121	0.3768	1.023	0.8503	1.779	0.4104	0.397	0.3878	0.3734	0.3825	747.043	870.276	640.882	534.456	521.955	136.747	148.698	140.523	180.025	Relative fluorescence intensity of E-cadherin ([3]; replicate 3): 162.569; Relative fluorescence intensity of vimentin ([3]; replicate 3): 180.666; Relative fluorescence intensity of E-cadherin ([3]; replicate 4): 158.855; Relative fluorescence intensity of vimentin ([3]; replicate 4): 185.036; Relative fluorescence intensity of E-cadherin ([3]; replicate 5): 155.981; Relative fluorescence intensity of vimentin ([3]; replicate 5): 170.787; Pulmonary CD11b+Gr1+ BMDCs (%) [4, 5]: 25.1%; Pulmonary CD11b+Gr1+ BMDCs (%) ([4]; same, mouse 2 of 5): 26.4%; Pulmonary CD11b+Gr1+ BMDCs (%) ([4]; same, mouse 3 of 5): 34.2%; Pulmonary CD11b+Gr1+ BMDCs (%) ([4]; same, mouse 4 of 5): 28.9%; Pulmonary CD11b+Gr1+ BMDCs (%) ([4]; same, mouse 5 of 5): 29.8%; Mean fluorescence intensity of LOX in lung tissues (LOX; replicate 1): 121.535; Mean fluorescence intensity of LOX in lung tissues (LOX; replicate 2): 108.102; Mean fluorescence intensity of LOX in lung tissues (LOX; replicate 3): 109.056; Mean fluorescence intensity of LOX in lung tissues (LOX; replicate 4): 97.784; Mean fluorescence intensity of LOX in lung tissues (LOX; replicate 5): 101.188

Reference: publication PMC10980815, “Cell surface patching via CXCR4-targeted nanothreads for cancer metastasis inhibition” (Nature Communications, 2024)
